Laboratory results as given in patent US11919856B2, “Compounds” (UCL BUSINESS LTD, priority 2018, dated 2024).

Legend:
antichymotrypsin = biological target: T1, antichymotrypsin (Homo sapiens, UniProt P01011); test: Serpin inhibitory activity, antichymotrypsin; type: biochemical; settings: incubation with 50 μM
T1 sequence (P01011 24-423): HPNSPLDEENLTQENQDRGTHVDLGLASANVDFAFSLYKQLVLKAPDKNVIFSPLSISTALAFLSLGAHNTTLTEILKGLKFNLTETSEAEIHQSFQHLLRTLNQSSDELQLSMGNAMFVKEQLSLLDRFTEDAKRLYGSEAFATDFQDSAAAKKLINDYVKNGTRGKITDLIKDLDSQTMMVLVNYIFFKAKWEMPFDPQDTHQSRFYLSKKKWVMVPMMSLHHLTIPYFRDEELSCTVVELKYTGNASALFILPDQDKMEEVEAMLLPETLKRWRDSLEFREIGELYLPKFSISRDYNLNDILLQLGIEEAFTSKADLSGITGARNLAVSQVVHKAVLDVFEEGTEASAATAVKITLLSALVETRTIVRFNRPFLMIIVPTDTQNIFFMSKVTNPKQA
Text: In order to investigate suitability of Compound 1 for progression into in vivo studies and the potential for taking forward as a clinical candidate for testing in human, Compound 1 was profiled against a panel of in vitro assays for off-targets considered predictive of potential safety liabilities. […] The measured potency of these marginal activities were at least 10-fold below the cellular activity of Compound 1 at blocking Z α1-antitrypsin polymerisation (pEC50 6.3). Loss of inhibitory activity represents a means by which possible off-target engagement with other serpins can be evaluated. However in contrast to α1-antitrypsin upon incubation with 50 μM Compound 1 the inhibitory activity of the homologues antithrombin, neuroserpin and antichymotrypsin was not affected.

Z α1-antitrypsin [1] = biological target: T2, Z α1-antitrypsin (Homo sapiens, UniProt P01009, E366K/V237A); test: Intracellular Z α1-antitrypsin polymer formation in CHO-TET-ON-Z-A1AT cells (2C1 antibody); type: cell-based; parameters: expressed in transfected cells; host or cells: CHO Tet-On (CHO-K1) cells, doxycycline-induced
Procedure: CHO Tet-On cells that conditionally express Z α1-antitrypsin (Ordóñez A et al. Hepatology 2013; 57(5):2049-60.) were simultaneously treated with 0.5 μg/mL […] and various concentrations of compounds for 48 hours in 6 well plates. Cells without doxycycline or treated with 1% v/v DMSO acted as controls. The cells were lysed and intracellular Z α1-antitrypsin polymer was evaluated by ELISA sandwich with the 2C1 monoclonal antibody (Miranda et al. Hepatology. 2010; 52:1078-88). Newly synthesised α1-antitrypsin was evaluated by growing cells induced to express Z α1-antitrypsin in DMEM without methionine (Met) and cysteine (Cys) for 1 h and then labelling with 1.3 MBq of ^35S-Met/Cys for 15 min. The cells were then rinsed and incubated in chase medium containing an excess of unlabeled Met and Cys for 0, 2 and 6 h. After the chase period, the medium was collected and cells were harvested. α1-Antitrypsin from the medium and cell lysates was immunoprecipitated with a polyclonal α1-antitrypsin antibody or the 2C1 monoclonal antibody that detects polymers by splitting each sample in two equal parts. Radiolabelled proteins were re-suspended in SDS loading buffer, boiled for 5 min, separated by 10% w/v acrylamide SDS-PAGE, and quantified by autoradiography.
CHO-K1 cells were incubated with/without doxycycline to express α1-antitrypsin and with or without the small molecule of interest, fixed with 3.7% v/v formaldehyde in PBS for 15 min, permeabilised with 0.1% v/v Triton X-100 in PBS and then blocked with 10% v/v FBS in PBS for 30 min. Cells were labelled with a rabbit polyclonal antibody to total α1-antitrypsin or the 2C1 monoclonal antibody that detects polymers followed by Texan red conjugated anti-rabbit or FITC labelled anti-mouse secondary antibodies respectively. Cells were imaged using an Axiovert 200 widefield fluorescence microscope (Carl Zeiss Microimaging Inc., Thornwood, NY).
Its ability to block Z α1-antitrypsin polymerisation in the ER during folding was assessed by adding Compound 1 to CHO-TET-ON-Z-A1AT cells (Ordóñez et al. Hepatology. 2013; 57(5):2049-60) with simultaneous induction of Z α1-antitrypsin expression using doxycycline. […] To investigate whether in addition to blocking polymerisation, Compound 1 was also able to increase secretion of Z α1-antitrypsin, Z α1-antitrypsin expression was induced in CHO-TET-ON-Z-A1AT cells, Compound 1 was added, and the total Z α1-antitrypsin in the supernatant was measured by immunoassay after 6 hours.

Z α1-antitrypsin [2] = biological target: T2, Z α1-antitrypsin; test: Biochemical competition binding assay (TR-FRET), Z α1-antitrypsin; parameters: a random insertion of the human Z α1-antitrypsin gene; from tissue; host or cells: liver and plasma of Z α1-antitrypsin transgenic mice (human Z transgene); settings: competition binding with fluorescently labelled derivative; read-out: affinity (KD) to Z α1-antitrypsin
Procedure: Alpha1-antitrypsin was purified from the plasma of ZZ and MM α1-antitrypsin homozygotes as described in Lomas et al., Biochemistry. 1993; 32:500-8. Recombinant Cys232Ser α1-antitrypsin was expressed and purified as detailed in Irving et al. Methods Enzymol. 2011; 501:421-66 and Haq et al. Biosci Rep. 2013; 33(3):e00046.
A fluorescent derivative of compound 1 was prepared by derivatizing compound 1 at its ring nitrogen atom with an Alexa Fluor 488 label via a short organic linker group.
A serial dilution of test compounds in DMSO was diluted 25-fold with assay buffer, and 2.5 μl of this intermediate dilution transferred to a black, low-volume 384-well microtitre plate (Greiner BioOne; product no. 784076). […]
Plates were sealed and incubated overnight at room temperature, or for 3 days at 4° C. then 6 hours at room temperature. […] The TR-FRET signal was read on an Envision plate reader, by excitation of Terbium at 337 nm and detection of emission at 520 nm and 495 nm.
Dissociation constants (KD) for the affinity of compounds to Z-a1AT or M-a1AT protein were derived from the pIC50 values according to the Cheng-Prusoff equation, taking into account the concentration of fluorescent ligand used in relation to its affinity as determined in independent Fluorescence Polarisation and TR-FRET experiments: KD(compound)=10^−pIC50(compound)/([…]. Compound Association Experiments

T2 sequence (P01009 25-418 V237A/E366K): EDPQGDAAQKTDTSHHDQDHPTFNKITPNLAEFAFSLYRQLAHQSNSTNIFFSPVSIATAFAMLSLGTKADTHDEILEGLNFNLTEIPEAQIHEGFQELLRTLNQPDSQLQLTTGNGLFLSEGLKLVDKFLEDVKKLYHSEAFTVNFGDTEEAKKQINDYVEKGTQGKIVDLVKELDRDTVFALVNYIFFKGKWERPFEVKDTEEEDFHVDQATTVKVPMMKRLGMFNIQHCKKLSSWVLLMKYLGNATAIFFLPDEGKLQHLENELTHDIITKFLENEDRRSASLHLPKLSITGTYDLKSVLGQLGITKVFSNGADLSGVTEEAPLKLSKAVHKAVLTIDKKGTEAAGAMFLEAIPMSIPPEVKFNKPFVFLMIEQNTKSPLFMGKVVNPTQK

## CCC[C@@H](NC(=O)c1cccc2c1CC(=O)N2)[C@@H](O)c1cccc(F)c1C [Compound 1, N-[(1S,2R)-1-(3-fluoro-2-methylphenyl)-1-hydroxypentan-2-yl]-2-oxo-2,3-dihydro-1H-indole-4-carboxamide]
antichymotrypsin
  inhibitory activity of antichymotrypsin: not affected
Z α1-antitrypsin [1]; 10 μM, CHO-TET-ON-Z-A1AT cells, tunicamycin experiment
  polymer formation in Z α1-antitrypsin expressing cells: completely abrogated
Z α1-antitrypsin [1]; CHO-TET-ON-Z-A1AT cells, doxycycline induction, 2C1 antibody, read-out: pIC50, intracellular formation of Z α1-antitrypsin polymers (converted)
  IC50: 0.501 µM
Z α1-antitrypsin [1]; CHO-TET-ON-Z-A1AT cells, in comparison with controls
  intracellular formation of Z α1-antitrypsin polymers: completely blocked
Z α1-antitrypsin [1]; read-out: cellular activity at blocking Z α1-antitrypsin polymerisation (pEC50) (converted)
  EC50: 0.501 µM
Z α1-antitrypsin [2]
  Kd: 0.0015 µM
